Where two headings read alike, the source gives them in different places.
Assays:
[1] = test system: A2780/WT (wild-type) cells; experiment: Sulforhodamine B (SRB) cytotoxicity assay in A2780/WT cells; format: cell-based
Procedure: (§1) Each of the testing conditions used in this study in both A2780/WT (wild-type) and A2780/DX5 cells were repeated in five to fifteen experiments that were performed on separate days. Each experiment consisted of one microtiter plate with at least eight individual assays of a given drug treatment condition on the plate. The sulforhodamine B (SRB) assay was used to assess cytotoxicity and absorbance at 570 nm (A570) in order to calculate the percentage of cell control (or percent cell survival) for the various treatment conditions in the plate wells.
(§2) Roswell Park Memorial Institute (RPMI 1640) medium, fetal bovine serum (FBS), and L-glutamine were purchased from Gibco BRL. Drugs were dissolved in sterile dimethylsulfoxide (DMSO), from American Type Culture Collection (ATCC) for stock solutions (2.5 to 5.0 mM). Subsequent dilutions were made using cell culture medium (prior to adding the drug to cells). SRB was purchased from Sigma and dissolved in 1.0 percent acetic acid. Trichloroacetic acid was purchased from VWR International.
(§3) Cells were manipulated in a Class IIA/B3 Biological Safety Cabinet (Forma Scientific) and maintained at 37°C in a humidified atmosphere containing 5% CO2 in a water-jacketed cell culture incubator (Forma Scientific). Cells were counted using a Coulter-Z1 counter (Beckman-Coulter). Following drug treatment, plates were washed using a Biomek 2000 station (Beckman) and, following exposure to SRB dye, plates were washed using an automated plate washer (Model EL404, Bio-Tek Instruments). Percentage of control was correlated to A570 values and determined using a Model EL800 plate reader (Bio-Tek Instruments).
(§4) Population doubling times for the two cell lines used in this study encompassed a total of five cell doublings corresponding to approximately 5 days for A2780/WT and A2780/DX5 cells. A2780/WT and A2780/DX5 cells were cultured in RPMI 1640 medium supplemented with 10% fetal bovine serum and 1 mM of L-glutamine. Both cell lines were maintained as monolayered cultures in T-25 or T-75 flasks and then seeded to microtiter plate wells for experiments described herein. Prior to SRB assays, cell viability was monitored by evaluation of microtiter plate wells. Dead cells detach and float while living cells remain attached to the bottom of the cell well.
(§5) The sulforhodamine B (SRB) cytotoxicity assay (see, Skehan P, et al., New colorimetric cytotoxicity assay for anticancer-drug screening. J. Natl. Cancer Inst. 82:1107-1112 (1990)) was used to determine the cytotoxic effects of BNP1350, SN-38, topotecan, 9-NH2-CPT, and 9-NO2-CPT on cell growth in vitro. Briefly, after the medium was aspirated from individual plate wells, trichloroacetic acid (100 µL of 10.0% solution) was added to each well, and the plates were incubated at 4°C for at least 1 hour. The plates were washed five-times with water using an automated microplate washer (Model EL 404, Bio-Tek Instruments), SRB solution (100 µL of 0.4 grams SRB dissolved in 100 mL 1.0 percent acetic acid) was added, and plates remained at room temperature for 15 minutes. The plates were then washed five-times using acetic acid (1.0%), air dried, and bound dye was solubilized in Tris base (150 µL, 10 mM). Plates were agitated (gently) for 5 minutes and the absorbance values of the SRB dye-protein adduct at a 570 nm wavelength (A570) were determined using an automated microtiter plate reader equipped with an A570 filter (Model EL800, BioTek Instruments). Table VII. Summary of Cytotoxicity Experiments in A2780/WT and DX5 Cells

A2780/DX5 cells = experiment: Sulforhodamine B (SRB) cytotoxicity assay in A2780/DX5 cells; format: cell-based; conditions: for IC50 Ratio: A2780/DX5 versus A2780/WT
Procedure: as §1, §2, §3, §4, §5

[2] = Homo sapiens, SRB assay, A2780/WT cells, read-out: A2780/ WT (IC50)
[3] = Homo sapiens, SRB assay, A2780/DX5 cells, read-out: A2780/ DX5 (IC50)
[4] = Homo sapiens, A2780, read-out: A2780/ WT (IC50)
[5] = Homo sapiens, A2780, read-out: A2780/ DX5 (IC50)
[6] = 100 nM Compound Concentrations, 48 hours or longer at room temperature
[7] = SRB assay, A2780/WT cells, read-out: A2780/ WT (IC50)
[8] = SRB assay, A2780/DX5 cells, read-out: A2780/ DX5 (IC50)

SMILES | IC50 [1, 2] [nM] | IC50 Ratio (A2780/DX5 cells) | IC50 (A2780/DX5 cells; [3]) [nM] | IC50 [1, 4] [nM] | Percent of Free Camptothecin Analogs in Human Plasma (human plasma proteins; [6]) [%] | further results
CC[C@@]1(O)C(=O)OCc2c1cc1n(c2=O)Cc2c-1nc1ccccc1c2CC[Si](C)(C)COC(C)=O [Compound 6, acetic acid-(4S)-{[2-(4-ethyl-4-hydroxy-3,13-dioxo-3,4,12,13-tetrahydro-1H-2-oxa-6,12a-diaza-dibenzo[b,h]fluoren-11-yl)-ethyl]-dimethylsilanyl}-methyl ester] | 9.3 | 2.27 | 21.1 | – | – | Percent of Free Camptothecin Analogs in Human Plasma (human plasma proteins; human, 100 nM): 5%
CC[C@@]1(O)C(=O)OCc2c1cc1n(c2=O)Cc2c-1nc1ccccc1c2CC[Si](C)(C)CCl [Compound 3, 11-(4S)-[2-(chloromethyldimethylsilanyl)-ethyl]-4-ethyl-4-hydroxy-1,12-dihydro-4H-2-oxa-6,12a-diaza-dibenzo[b,h]fluorene-3,13-dione] | – | 1.45 | – | 10 | 1 | IC50 (A2780/DX5 cells; [5]): 14.5 nM
CC[C@@]1(O)C(=O)OCc2c1cc1n(c2=O)Cc2cc3c(CN(C)C)c(O)ccc3nc2-1 [Topotecan, 9-dimethylaminomethyl-10-hydroxy camptothecin] | – | – | – | – | 100 | –
CCc1c2c(nc3ccc(O)cc13)-c1cc3c(c(=O)n1C2)COC(=O)[C@]3(O)CC [SN-38, 10-hydroxy-7-ethyl camptothecin] | – | – | – | – | 15 | –
CCc1c2c(nc3ccccc13)-c1cc3c(c(=O)n1C2)COC(=O)[C@]3(O)CC [SN-22] | – | – | – | – | 1 | –
CC[C@@]1(O)C(=O)OCc2c1cc1n(c2=O)Cc2c-1nc1ccccc1c2CC[Si](C)(C)Cn1cncn1 [Compound 30, (4S)-11-[2-(dimethyl-[1,2,4]triazol-1-ylmethylsilanyl)-ethyl]-4-ethyl-4-hydroxy-1,12-dihydro-4H-2-oxa-6,12a-diaza-dibenzo[b,h]fluorene-3,13-dione] | – | 7.8 | 60.4 | 7.7 | – | Percent of Free Camptothecin Analogs in Human Plasma (human plasma proteins; human, 100 nM): 8%
CC[C@@]1(O)C(=O)OCc2c1cc1n(c2=O)Cc2c-1nc1ccccc1c2CC[Si](C)(C)CCCO [Compound 10, 4S-4-ethyl-4-hydroxy-11-{2-[(3-hydroxypropyl)-dimethylsilanyl]-ethyl}-1,12-dihydro-4H-2-oxa-6,12a-diaza-dibenzo[b,h]fluorene-3,13-dione] | – | 3.68 | – | – | 3.4 | IC50 [1, 7]: 9.6 nM; IC50 (A2780/DX5 cells; [8]): 35.3 nM
CC[C@@]1(O)C(=O)OCc2c1cc1n(c2=O)Cc2c-1nc1ccccc1c2CC[Si](C)(C)CSCCO [Compound 35, (4S)-4-ethyl-4-hydroxy-11-{2-[(2-hydroxy-ethylsulfanylmethyl)-dimethyl-silanyl]-ethyl}-1,12-dihydro-4H-2-oxa-6,12a-diaza-dibenzo[b,h]fluorene-3,13-dione] | 8.2 | 2.6 | 21.6 | – | – | –
CCC1(O)C(=O)OCc2c1cc1n(c2=O)Cc2c-1nc1ccccc1c2CC[Si](C)(C)CCCOC(=O)C1=CCNO1 (stereo not drawn) [Compound 64, 2,3-Dihydro-isoxazole-5-carboxylic acid 3-{[2-(4-ethyl-4-hydroxy-3,13-dioxo-3,4,12,13-tetrahydro-1H-2-oxa-6,12a-diaza-dibenzo[b,h]fluoren-11-yl)-ethyl]-dimethyl-silanyl}-propyl ester] | – | 4.27 | – | 14 | – | IC50 (A2780/DX5 cells; [5]): 59.8 nM
CC[C@@]1(O)C(=O)OCc2c1cc1n(c2=O)Cc2c-1nc1ccccc1c2CC[Si](C)(C)CNS(=O)(=O)c1ccc(Cl)cc1 [Compound 37, (4S)-4-chloro-N-({[2-(4-ethyl-4-hydroxy-3,13-dioxo-3,4,12,13-tetrahydro-1H-2-oxa-6,12a-diaza-dibenzo[b,h]fluoren-11-yl)-ethyl]-dimethylsilanyl} -methyl)-benzenesulfonamide] | – | 4.08 | – | 207 | – | IC50 (A2780/DX5 cells; [5]): 845 nM
CC[C@@]1(O)C(=O)OCc2c1cc1n(c2=O)Cc2c-1nc1ccccc1c2CC[Si](C)(C)O [Compound 46, (4S)-4-Ethyl-4-hydroxy-11-[2-(hydroxydimethylsilanyl)-ethyl]-1, 12-dihydro-4H-2-oxa-6,12a-diaza-dibenzo[b,h]fluorene-3,13-dione] | 10 | 5.0 | 50 | – | – | –
CC[C@@]1(O)C(=O)OCc2c1cc1n(c2=O)Cc2c-1nc1ccccc1c2CC[Si](C)(C)CCCOC(C)=O [Compound 60, Acetic acid 3-{[2-(4-ethyl-4-hydroxy-3,13-dioxo-3,4, 12, 13-tetrahydro-1H-2-oxa-6,12a-diaza-dibenzo[b,h]fluoren-11-yl)-ethyl]-dimethyl-silanyl}-propyl ester] | 10.6 | 3 | 32.1 | – | – | –
CCC1(O)C(=O)OCc2c1cc1n(c2=O)Cc2c-1nc1ccccc1c2CC[Si](C)(C)CCC(=O)NC(CCC(=O)OCc1ccccc1)C(=O)OCc1ccccc1 (stereo not drawn) [Compound 49, 2-(3-{[2-(4-Ethyl-4-hydroxy-3, 13-dioxo-3,4, 12, 13-tetrahydro-1H-2-oxa-6,12a-diaza-dibenzo[b,h]fluoren-11-yl)-ethyl]-dimethyl-silanyl}-propionylamino)-pentanedioic acid dibenzyl ester] | > 2000 | – | > 2000 | – | – | –
CC[C@@]1(O)C(=O)OCc2c1cc1n(c2=O)Cc2c-1nc1ccccc1c2CC[Si](C)(C)CNC(=O)Nc1ccccc1 [Compound 41, (4S)-1-({[2-(4-ethyl-4-hydroxy-3,13-dioxo-3,4,12,13-tetrahydro-1H-2-oxa-6,12a-diaza-dibenzo[b,h]fluoren-11-yl)-ethyl]-dimethylsilanyl}-methyl)-3-phenylurea] | – | 11.2 | – | 23.2 | – | IC50 (A2780/DX5 cells; [5]): 259 nM
CCC1(O)C(=O)OCc2c1cc1n(c2=O)Cc2c-1nc1ccccc1c2CC[Si](C)(C)CSC(C)=O (stereo not drawn) [Compound 9, thioacetic acid S-({[2-(4-ethyl-4-hydroxy-3.13-dioxo-3,4,12,13-tetrahydro-1H-2-oxa-6,12a-diaza-dibenzo[b,h]fluoren-11-yl)-ethyl]-dimethylsilanyl} -methyl) ester] | – | 1.94 | – | – | – | IC50 [1, 7]: 64.7 nM; IC50 (A2780/DX5 cells; [8]): 125 nM

Source: patent EP2197879B1, “C7-SUBSTITUTED CAMPTOTHECIN ANALOGS” (priority 2007, dated 2009)
